The experiment concerns the target T1, ORF15 (polyprenyl phosphoribofuranose synthase, PPPRS) (Citrobacter youngae, UniProt A0A2Z4BV67).
T1 construct: gene ubiA; full-length two-domain integral membrane protein (N-terminal PRP/HAD, C-terminal UbiA-type PPPRS); plasmid-expressed, membranes used as enzyme
T1 sequence (A0A2Z4BV67 1-483): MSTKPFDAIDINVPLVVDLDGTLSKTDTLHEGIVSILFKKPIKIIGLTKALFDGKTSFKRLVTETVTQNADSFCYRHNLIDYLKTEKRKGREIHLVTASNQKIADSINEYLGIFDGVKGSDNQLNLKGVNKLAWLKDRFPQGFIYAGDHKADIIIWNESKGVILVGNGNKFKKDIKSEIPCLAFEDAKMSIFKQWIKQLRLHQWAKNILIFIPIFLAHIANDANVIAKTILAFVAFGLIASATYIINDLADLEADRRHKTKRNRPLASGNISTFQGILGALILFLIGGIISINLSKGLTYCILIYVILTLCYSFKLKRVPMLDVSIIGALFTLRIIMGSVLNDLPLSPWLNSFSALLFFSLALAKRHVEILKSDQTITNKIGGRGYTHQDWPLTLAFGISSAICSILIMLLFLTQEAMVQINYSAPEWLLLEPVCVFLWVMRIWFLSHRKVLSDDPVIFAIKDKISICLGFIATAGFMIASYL
The experiment is described as follows: TLC, MS and NMR of product formed by membranes. To be noted: […] °C, […] h, expressed membranes. It counts as biochemical.

Take `CC(C)=CCC/C(C)=C/CC/C(C)=C/COP(=O)(O)O` [compound 1, farnesyl-phosphate]: the “TLC, MS and NMR of product formed by membranes” value ([…] acceptor, […] PRPP, […] MgCl2, […] HEPES pH […]) is on record as “revealing production of a slower migrating species that was dependent on the presence of PRPP”. For `O=P(O)(O)OC[C@H]1O[C@H](OP(=O)(O)OP(=O)(O)O)[C@H](O)[C@@H]1O` [phosphoribosylpyrophosphate], the “TLC, MS and NMR of product formed by membranes” value ([…] donor, […] farnesylP acceptor, […] MgCl2, pH […]) is “membranes, PRPP donor, and farnesylP acceptor were analyzed by thin layer chromatography (TLC)”.

Source of the values: publication PMC11127046, “Three-component systems represent a common pathway for extracytoplasmic addition of pentofuranose sugars into bacterial glycans” (Proceedings of the National Academy of Sciences of the …, 2024).
